# Test results as given in ChEMBL document CHEMBL5463729, “Data for DCP probe BAY 1753011” (2023).
# What was measured:
# [1] = target: Insulin-like growth factor 1 receptor (Homo sapiens) (UniProt P08069); experiment: Inhibition of IGF-1R(h) at 10.0 µM in the Eurofins Kinase panel; details: Compound concentration 10.0 uM
# [2] = target: Hepatocyte growth factor receptor (Homo sapiens) (UniProt P08581); experiment: Inhibition of Met(h) at 10.0 µM in the Eurofins Kinase panel; details: Compound concentration 10.0 uM
# [3] = target: Tyrosine-protein kinase Fgr (Homo sapiens) (UniProt P09769); experiment: Inhibition of Fgr(h) at 10.0 µM in the Eurofins Kinase panel; details: Compound concentration 10.0 uM
# [4] = target: Serine/threonine-protein kinase ICK (Homo sapiens) (UniProt Q9UPZ9); experiment: Inhibition of ICK(h) at 10.0 µM in the Eurofins Kinase panel; details: Compound concentration 10.0 uM
# [5] = target: Calcium/calmodulin-dependent protein kinase type II subunit delta (Homo sapiens) (UniProt Q13557); experiment: Inhibition of CaMKIIdelta(h) at 10.0 µM in the Eurofins Kinase panel; details: Compound concentration 10.0 uM
# [6] = target: Type-1 angiotensin II receptor (Homo sapiens) (UniProt P30556); details: Compound concentration 10.0 uM
# Rattus norvegicus = species on record: Rattus norvegicus; details: Compound concentration 10.0 uM
# [7] = target: Sodium-dependent dopamine transporter (Homo sapiens) (UniProt Q01959); details: Compound concentration 10.0 uM
# [8] = target: GABA-A receptor; anion channel (Rattus norvegicus) (UniProt O09028+P15431+P18506+P18508+P19969+P20236+P23574+P23576+P28471+P28473+P30191+P62813+P63079+P63138+Q91ZM7+Q9ES14); experiment: Inhibition of GABAA, Muscimol, Central at 10 µM in the Eurofins-Panlabs radioligand binding assay (Eurofins_assay_226500); format: protein-complex assay; details: Compound concentration 10.0 uM
# [9] = target: Histamine H3 receptor (Homo sapiens) (UniProt Q9Y5N1); details: Compound concentration 10.0 uM
# Oxytocin receptor = target: T1, Oxytocin receptor (Homo sapiens, UniProt P30559); experiment: Inhibition of Oxytocin at 1 µM in the Eurofins-Panlabs radioligand binding assay (Eurofins_assay_260900); parameters: ligand concentration 0.8 nM, non-specific ligand with concentration 1 µM Oxytocin, incubation time 2 h, incubation temperature 25°C
# T1 sequence (P30559 whole entry): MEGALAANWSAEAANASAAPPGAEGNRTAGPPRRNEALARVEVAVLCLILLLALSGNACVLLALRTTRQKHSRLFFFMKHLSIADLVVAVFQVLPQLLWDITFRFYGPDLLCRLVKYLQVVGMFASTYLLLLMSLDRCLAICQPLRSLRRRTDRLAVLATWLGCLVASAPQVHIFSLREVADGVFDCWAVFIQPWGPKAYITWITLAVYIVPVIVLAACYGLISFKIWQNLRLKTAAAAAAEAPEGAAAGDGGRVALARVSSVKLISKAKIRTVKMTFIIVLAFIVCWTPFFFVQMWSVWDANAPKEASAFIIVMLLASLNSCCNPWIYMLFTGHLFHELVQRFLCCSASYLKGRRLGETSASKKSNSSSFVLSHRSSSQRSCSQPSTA
# [10] = target: D(1A) dopamine receptor (Homo sapiens) (UniProt P21728); details: Compound concentration 10.0 uM
# [11] = target: T2, D(4) dopamine receptor (Homo sapiens) (UniProt P21917); experiment: Inhibition of Dopamine D4.2 at 10 µM in the Eurofins-Panlabs radioligand binding assay (Eurofins_assay_219900); parameters: ligand concentration 0.5 nM; details: Compound concentration 10.0 uM
# T2 sequence (whole entry): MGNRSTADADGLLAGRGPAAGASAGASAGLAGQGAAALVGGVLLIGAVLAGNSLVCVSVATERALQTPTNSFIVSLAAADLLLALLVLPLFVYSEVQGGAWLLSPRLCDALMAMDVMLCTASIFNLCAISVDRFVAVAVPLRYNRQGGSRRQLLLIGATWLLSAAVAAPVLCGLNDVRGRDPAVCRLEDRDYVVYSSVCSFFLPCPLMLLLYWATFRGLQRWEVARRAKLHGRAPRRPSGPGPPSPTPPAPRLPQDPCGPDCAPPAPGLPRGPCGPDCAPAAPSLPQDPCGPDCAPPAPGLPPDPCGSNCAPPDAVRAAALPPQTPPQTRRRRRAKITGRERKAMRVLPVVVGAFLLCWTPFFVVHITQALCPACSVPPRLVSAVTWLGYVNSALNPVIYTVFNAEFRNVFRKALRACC
# [12] = target: Prostaglandin E2 receptor EP4 subtype (Homo sapiens) (UniProt P35408); experiment: Inhibition of Prostanoid EP4 at 10 µM in the Eurofins-Panlabs radioligand binding assay (Eurofins_assay_268420); parameters: ligand concentration 1 nM; details: Compound concentration 10.0 uM
# [13] = target: T3, 5-hydroxytryptamine receptor 3A (Homo sapiens) (UniProt P46098); experiment: Inhibition of Serotonin (5-Hydroxytryptamine) 5-HT3 at 10 µM in the Eurofins-Panlabs radioligand binding assay (Eurofins_assay_271910); parameters: ligand concentration 0.69 nM; details: Compound concentration 10.0 uM
# T3 sequence (whole entry): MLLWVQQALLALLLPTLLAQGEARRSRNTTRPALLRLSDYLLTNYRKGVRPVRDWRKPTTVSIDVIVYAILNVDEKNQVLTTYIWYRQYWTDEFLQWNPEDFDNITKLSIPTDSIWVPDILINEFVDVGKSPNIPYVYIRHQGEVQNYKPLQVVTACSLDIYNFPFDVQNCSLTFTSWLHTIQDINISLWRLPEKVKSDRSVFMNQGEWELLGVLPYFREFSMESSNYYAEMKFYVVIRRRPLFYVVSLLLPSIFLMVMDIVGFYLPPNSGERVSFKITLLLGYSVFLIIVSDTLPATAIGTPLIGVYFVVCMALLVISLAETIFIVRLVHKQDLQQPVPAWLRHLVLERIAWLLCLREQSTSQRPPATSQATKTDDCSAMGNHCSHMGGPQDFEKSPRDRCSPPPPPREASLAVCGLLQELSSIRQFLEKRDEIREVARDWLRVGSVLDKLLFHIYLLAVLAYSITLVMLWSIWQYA
# [14] = target: Tyrosine-protein kinase Fer (Homo sapiens) (UniProt P16591); experiment: Inhibition of Fer(h) at 10.0 µM in the Eurofins Kinase panel; details: Compound concentration 10.0 uM
# Caspase-1 (Homo sapiens) = Caspase-1 (Homo sapiens) (UniProt P29466); experiment: Inhibition of Peptidase, CASP1 (Caspase 1) at 10 µM in the Eurofins-Panlabs enzyme assay (Eurofins_assay_163000); details: Compound concentration 10.0 uM
# [15] = target: voltage-gated sodium channel, site 2 (Rattus norvegicus, UniProt F1LQQ7+O08562+O88420+O88457+P04774+P04775+P08104+P15389+P15390+Q62968); experiment: Inhibition of Sodium Channel, Site 2 at 10 µM in the Eurofins-Panlabs radioligand binding assay (Eurofins_assay_279510); format: protein assay; parameters: ligand concentration 5 nM, non-specific ligand with concentration 100 µM Veratridine, incubation time 60 min, incubation temperature 37 °C; details: male, Wistar, rat whole brain (except cerebellum) membranes, probe [3H] Batrachotoxinin, compound concentration 10 uM
# [16] = target: Tyrosine-protein kinase Lck (Homo sapiens) (UniProt P06239); experiment: Inhibition of Protein Tyrosine Kinase, LCK at 10 µM in the Eurofins-Panlabs enzyme assay (Eurofins_assay_176020); details: Compound concentration 10.0 uM
# [17] = target: Tyrosine-protein kinase Fyn (Homo sapiens) (UniProt P06241); experiment: Inhibition of Protein Tyrosine Kinase, Fyn at 10 µM in the Eurofins-Panlabs enzyme assay (Eurofins_assay_172020); parameters: substrate with concentration; details: Compound concentration 10.0 uM
# Chain of Sodium-dependent dopamine transporter (Homo sapiens) (Q01959 whole entry): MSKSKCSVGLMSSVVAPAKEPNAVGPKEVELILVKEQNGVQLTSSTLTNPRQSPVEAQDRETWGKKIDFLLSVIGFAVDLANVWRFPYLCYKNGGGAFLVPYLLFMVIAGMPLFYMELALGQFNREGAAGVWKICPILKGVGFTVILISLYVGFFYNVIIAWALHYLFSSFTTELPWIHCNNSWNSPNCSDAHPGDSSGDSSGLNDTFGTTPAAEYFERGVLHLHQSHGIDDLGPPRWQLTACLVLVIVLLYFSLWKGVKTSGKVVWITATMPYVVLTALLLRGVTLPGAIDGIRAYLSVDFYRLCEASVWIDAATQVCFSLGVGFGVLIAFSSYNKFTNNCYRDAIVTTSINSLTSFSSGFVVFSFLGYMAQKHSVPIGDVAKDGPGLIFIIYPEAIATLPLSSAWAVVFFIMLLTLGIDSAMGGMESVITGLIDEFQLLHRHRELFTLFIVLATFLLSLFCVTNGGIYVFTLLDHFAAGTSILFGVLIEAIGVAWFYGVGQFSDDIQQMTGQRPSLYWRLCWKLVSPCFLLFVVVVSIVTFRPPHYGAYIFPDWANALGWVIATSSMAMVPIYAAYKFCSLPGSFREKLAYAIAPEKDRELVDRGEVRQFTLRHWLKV
# Chain of D(1A) dopamine receptor (Homo sapiens) (P21728 whole entry): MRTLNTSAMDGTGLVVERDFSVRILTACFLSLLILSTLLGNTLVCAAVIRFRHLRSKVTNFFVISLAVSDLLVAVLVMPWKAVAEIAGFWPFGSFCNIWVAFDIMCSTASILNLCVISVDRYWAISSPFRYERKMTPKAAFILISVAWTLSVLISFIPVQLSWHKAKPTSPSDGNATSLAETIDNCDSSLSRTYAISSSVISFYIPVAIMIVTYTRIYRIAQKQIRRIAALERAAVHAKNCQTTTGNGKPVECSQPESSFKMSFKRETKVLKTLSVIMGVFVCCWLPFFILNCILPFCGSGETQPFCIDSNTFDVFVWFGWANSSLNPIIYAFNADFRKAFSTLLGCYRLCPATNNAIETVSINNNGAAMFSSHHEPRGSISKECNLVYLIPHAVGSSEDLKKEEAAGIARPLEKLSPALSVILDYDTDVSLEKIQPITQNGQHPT
# Chain of Tyrosine-protein kinase Fer (Homo sapiens) (P16591 whole entry, looked up): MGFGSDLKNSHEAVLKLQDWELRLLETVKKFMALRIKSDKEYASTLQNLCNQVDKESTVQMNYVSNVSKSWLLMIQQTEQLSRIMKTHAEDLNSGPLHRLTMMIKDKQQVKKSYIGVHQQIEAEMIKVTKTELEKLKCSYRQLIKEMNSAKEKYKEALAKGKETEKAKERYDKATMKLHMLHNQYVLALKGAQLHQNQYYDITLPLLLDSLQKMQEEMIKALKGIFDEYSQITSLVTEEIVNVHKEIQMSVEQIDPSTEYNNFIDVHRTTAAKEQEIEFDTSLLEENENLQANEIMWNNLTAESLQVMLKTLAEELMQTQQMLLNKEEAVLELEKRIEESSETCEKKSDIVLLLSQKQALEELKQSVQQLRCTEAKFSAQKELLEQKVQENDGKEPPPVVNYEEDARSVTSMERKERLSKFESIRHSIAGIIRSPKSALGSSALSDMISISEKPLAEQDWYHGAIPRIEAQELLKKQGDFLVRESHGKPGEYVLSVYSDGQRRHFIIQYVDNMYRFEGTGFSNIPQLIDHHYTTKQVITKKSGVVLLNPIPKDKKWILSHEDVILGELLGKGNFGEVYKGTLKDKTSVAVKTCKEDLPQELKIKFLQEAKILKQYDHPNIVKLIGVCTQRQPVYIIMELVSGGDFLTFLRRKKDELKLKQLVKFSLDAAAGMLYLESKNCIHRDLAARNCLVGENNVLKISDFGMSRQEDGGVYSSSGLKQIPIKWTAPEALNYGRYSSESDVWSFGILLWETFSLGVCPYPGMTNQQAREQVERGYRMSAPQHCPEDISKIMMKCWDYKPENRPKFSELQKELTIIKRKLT
# Chain of Hepatocyte growth factor receptor (Homo sapiens) (P08581 whole entry): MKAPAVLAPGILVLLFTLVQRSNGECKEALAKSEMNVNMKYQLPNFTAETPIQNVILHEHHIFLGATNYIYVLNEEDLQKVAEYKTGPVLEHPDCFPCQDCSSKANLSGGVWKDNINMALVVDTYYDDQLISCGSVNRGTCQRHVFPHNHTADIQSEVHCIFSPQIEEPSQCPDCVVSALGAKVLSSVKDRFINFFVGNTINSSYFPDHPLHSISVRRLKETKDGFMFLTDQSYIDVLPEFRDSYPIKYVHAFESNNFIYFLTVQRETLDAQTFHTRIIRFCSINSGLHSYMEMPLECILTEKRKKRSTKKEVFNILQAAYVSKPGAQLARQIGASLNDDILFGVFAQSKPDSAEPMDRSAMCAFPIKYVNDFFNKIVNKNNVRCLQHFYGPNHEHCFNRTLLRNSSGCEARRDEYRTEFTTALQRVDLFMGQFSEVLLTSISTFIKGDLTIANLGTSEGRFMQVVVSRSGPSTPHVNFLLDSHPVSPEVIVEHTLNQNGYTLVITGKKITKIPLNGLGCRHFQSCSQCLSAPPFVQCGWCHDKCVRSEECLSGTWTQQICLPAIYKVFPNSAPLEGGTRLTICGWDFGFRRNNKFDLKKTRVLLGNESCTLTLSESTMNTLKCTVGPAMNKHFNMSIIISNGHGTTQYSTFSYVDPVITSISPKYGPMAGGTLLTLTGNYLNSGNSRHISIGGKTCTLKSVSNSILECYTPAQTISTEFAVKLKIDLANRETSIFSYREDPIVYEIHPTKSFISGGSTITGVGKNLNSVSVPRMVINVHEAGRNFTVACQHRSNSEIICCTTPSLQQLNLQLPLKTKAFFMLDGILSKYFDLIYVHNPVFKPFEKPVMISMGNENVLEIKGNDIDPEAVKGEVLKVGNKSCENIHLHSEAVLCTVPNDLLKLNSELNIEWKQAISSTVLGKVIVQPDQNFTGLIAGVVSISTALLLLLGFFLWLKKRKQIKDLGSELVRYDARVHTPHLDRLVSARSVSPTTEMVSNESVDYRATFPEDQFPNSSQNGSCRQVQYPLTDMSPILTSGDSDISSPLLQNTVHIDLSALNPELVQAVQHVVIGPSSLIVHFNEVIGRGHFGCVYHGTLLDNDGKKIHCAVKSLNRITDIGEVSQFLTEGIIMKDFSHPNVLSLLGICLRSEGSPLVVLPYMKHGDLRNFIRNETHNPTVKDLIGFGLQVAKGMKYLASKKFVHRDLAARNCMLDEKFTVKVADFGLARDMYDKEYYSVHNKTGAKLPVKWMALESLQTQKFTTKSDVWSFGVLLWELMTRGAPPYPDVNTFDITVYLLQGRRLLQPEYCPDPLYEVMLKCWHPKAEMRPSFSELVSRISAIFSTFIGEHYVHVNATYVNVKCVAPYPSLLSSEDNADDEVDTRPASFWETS
# Chain of Insulin-like growth factor 1 receptor (Homo sapiens) (P08069 31-736 limits assumed): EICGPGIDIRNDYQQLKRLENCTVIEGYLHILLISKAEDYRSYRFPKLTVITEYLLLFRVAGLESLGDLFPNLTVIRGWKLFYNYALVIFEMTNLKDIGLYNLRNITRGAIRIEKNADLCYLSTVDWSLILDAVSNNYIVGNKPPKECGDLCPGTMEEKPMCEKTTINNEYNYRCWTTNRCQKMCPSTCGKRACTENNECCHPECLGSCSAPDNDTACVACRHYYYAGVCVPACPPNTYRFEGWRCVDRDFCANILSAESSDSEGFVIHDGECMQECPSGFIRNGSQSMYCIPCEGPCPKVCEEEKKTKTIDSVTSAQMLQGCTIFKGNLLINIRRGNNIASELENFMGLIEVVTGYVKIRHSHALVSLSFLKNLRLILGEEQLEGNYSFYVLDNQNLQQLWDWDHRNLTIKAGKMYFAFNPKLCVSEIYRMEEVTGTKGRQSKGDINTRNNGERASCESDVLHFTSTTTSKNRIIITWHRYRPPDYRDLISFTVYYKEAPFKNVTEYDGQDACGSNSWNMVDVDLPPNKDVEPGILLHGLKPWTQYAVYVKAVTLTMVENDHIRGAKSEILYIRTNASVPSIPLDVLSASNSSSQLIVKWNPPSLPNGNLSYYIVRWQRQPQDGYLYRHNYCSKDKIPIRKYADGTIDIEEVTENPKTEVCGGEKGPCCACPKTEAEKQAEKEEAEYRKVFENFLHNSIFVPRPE
# Chain of Insulin-like growth factor 1 receptor (Homo sapiens) (P08069 741-1367 limits assumed): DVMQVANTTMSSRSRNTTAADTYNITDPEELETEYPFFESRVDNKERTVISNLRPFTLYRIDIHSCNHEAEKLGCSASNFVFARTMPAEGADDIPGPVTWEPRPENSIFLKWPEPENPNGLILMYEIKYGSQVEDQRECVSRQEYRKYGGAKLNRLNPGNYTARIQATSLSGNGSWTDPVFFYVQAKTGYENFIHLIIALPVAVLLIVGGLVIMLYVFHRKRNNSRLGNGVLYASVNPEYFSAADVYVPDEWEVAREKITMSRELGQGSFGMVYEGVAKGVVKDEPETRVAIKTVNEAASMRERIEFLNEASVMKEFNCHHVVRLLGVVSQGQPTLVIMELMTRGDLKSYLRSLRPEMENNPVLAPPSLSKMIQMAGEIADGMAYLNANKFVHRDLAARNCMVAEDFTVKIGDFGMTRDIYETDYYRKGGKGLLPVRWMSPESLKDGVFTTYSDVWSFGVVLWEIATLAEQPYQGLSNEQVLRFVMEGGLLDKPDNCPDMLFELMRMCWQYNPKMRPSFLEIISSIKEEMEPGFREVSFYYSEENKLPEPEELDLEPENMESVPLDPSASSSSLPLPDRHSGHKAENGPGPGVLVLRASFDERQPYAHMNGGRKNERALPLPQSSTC
# Chain of Histamine H3 receptor (Homo sapiens) (Q9Y5N1 whole entry): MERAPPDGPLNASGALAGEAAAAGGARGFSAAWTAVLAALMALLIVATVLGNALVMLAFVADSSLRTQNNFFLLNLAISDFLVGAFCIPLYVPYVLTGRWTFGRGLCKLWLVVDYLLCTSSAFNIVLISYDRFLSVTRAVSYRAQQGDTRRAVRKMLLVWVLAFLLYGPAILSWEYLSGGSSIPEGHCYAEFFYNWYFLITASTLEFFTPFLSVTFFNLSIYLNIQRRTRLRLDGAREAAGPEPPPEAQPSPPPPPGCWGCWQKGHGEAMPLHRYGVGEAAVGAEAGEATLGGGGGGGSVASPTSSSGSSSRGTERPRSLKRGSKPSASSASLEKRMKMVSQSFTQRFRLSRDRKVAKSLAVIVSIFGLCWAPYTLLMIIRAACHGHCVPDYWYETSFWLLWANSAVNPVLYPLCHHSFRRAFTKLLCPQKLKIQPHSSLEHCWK
structure (smiles),measurement,setting,value
O=c1n(Cc2cncn2-c2cccc(Cl)c2)nc(-c2ccc(Cl)cc2)n1C[C@H](O)C(F)(F)F,inhibition,[1],-8.87%
same,inhibition,[2],-3.84%
same,inhibition,[3],-7.12%
same,inhibition,[4],-9.83%
same,inhibition,[5],-4.39%
same,inhibition,[6],-6%
same,inhibition,Rattus norvegicus,-0.38%
same,inhibition,[7],4.92%
C[C@H](O)c1nc(Cn2nc(-c3ccc(Cl)cc3)n(C[C@H](O)C(F)(F)F)c2=O)nn1-c1cccc(Cl)c1 [PECAVAPTAN],inhibition,[8],-2%
same,inhibition,[9],-1%
same,IC50,Oxytocin receptor,0.0155 µM
same,Ki,Oxytocin receptor,0.00506 µM
same,inhibition,[10],-6.55%
same,inhibition,[11],3%
same,inhibition,[12],16%
same,inhibition,[13],-2%
same,inhibition,[14],-2.1%
same,inhibition,Caspase-1 (Homo sapiens),0%
same,"inhibition at 60 min, 10 µM",[15],42% (not active)
same,inhibition,[16],-9%
same,inhibition,[17],-6%
